{"source": "patent US6436952B1", "about": "“Benzonaphthyridine-N-oxides comprising a PDE3 and PDE4 inhibiting activity” (BYK Gulden Lomberg Chemische Fabrik GmbH, priority 1998, dated 2002)", "key": {"PDE4 (cAMP-specific)": {"target": "PDE4 (cAMP-specific)", "test": "Inhibition of PDE isoenzymes: PDE4 in cytosol of human polymorphonuclear leukocytes", "type": "biochemical", "details": "cytosol of human PMNL, cAMP as substrate, motapizone (1 μM) present", "protocol": "(§1) The PDE activity was determined according to Thompson et al. (1) with some modifications (2). The test samples contained 40 mM tris HCl (pH 7.4), 5 mM MgCl2, 0.5 μM cAMP or cGMP, [^3H]cAMP or [^3H]cGMP (about 50 000 cpm/sample), the PDE isoenzyme-specific additions described in greater detail below, the indicated concentrations of inhibitor and an aliquot of the enzyme solution in a total sample volume of 200 μl. […] After preincubation at 37° C. for 5 minutes, the reaction was started by addition of the substrate (cAMP or cGMP). The samples were incubated at 37° C. for a further 15 min. The reaction was terminated by addition of 50 μl of 0.2N HCl. After cooling on ice for 10 minutes and addition of 25 μg of 5′-nucleotidase (snake venom from Crotalus atrox), the mixture was again incubated at 37° C. for 10 min and the samples were then applied to QAE Sephadex A-25 columns. The columns were eluted with 2 ml of 30 mM ammonium formate (pH 6.0). The radioactivity of the eluate was measured and corrected by the corresponding blank values. The proportion of hydrolyzed nucleotide in no case exceeded 20% of the original substrate concentration. […]\n(§2) The lC50 values were determined from the concentration-inhibition curves by nonlinear regression using the GraphPad InPlot™ program (GraphPad Software Inc., Philadelphia, USA)."}, "PDE3 (cGMP-inhibited)": {"target": "T1, PDE3 (cGMP-inhibited) (Homo sapiens, UniProt Q14432)", "T1 construct": "were investigated in homogenates of human blood platelets; from tissue; host or cells: homogenate of human blood platelets", "T1 sequence (Q14432 whole entry)": "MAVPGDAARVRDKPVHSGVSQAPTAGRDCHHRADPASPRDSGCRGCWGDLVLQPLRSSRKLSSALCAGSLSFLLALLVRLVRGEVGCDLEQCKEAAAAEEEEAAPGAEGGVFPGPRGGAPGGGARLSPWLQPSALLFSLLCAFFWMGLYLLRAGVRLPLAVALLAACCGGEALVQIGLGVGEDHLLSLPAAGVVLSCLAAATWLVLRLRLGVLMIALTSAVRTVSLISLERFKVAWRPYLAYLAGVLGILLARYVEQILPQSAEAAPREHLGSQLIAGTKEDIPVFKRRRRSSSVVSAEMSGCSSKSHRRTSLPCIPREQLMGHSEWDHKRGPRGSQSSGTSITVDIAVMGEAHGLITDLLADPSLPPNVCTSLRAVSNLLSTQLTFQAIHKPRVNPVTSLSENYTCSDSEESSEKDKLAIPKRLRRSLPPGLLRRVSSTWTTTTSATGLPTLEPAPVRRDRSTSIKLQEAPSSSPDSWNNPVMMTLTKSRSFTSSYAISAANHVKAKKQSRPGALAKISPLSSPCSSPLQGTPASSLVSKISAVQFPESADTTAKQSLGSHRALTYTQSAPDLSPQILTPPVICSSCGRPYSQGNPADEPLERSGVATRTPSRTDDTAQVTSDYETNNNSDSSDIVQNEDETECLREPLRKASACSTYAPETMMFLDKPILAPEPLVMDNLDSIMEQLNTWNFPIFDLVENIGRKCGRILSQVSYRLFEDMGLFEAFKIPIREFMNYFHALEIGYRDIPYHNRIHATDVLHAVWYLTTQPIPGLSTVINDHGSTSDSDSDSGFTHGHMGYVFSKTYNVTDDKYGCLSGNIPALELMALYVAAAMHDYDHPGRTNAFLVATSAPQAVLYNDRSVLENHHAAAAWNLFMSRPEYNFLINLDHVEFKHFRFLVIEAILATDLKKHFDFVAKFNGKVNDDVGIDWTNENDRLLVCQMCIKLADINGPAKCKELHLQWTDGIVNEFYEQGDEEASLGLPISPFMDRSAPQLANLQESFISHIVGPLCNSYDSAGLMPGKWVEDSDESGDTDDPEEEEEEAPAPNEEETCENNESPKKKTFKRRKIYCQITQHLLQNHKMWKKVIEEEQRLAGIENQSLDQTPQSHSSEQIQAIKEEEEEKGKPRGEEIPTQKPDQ", "test": "Inhibition of PDE isoenzymes: PDE3 in homogenates of human blood platelets", "type": "biochemical", "details": "cAMP as substrate, read-out: PDE3 [-log IC50, mol/l] (converted)", "protocol": "as §1, §2"}}}
{"smiles": "CCOc1cc2c(cc1OC)C(c1ccc(-c3nnn(CC)n3)cc1)=NC1CC[N+](C)([O-])CC21", "note": "(stereo not drawn) [Compound 1, cis-9-Ethoxy-8-methoxy-2-methyl-6-[4-(2H-2-ethyltetrazol-5-yl)phenyl]-1,2,3,4,4a,10b-hexahydrobenzo[c][1,6]naohthyridine N-2-Oxide]", "values": [{"measurement": "PDE4 [-log IC50, mol/l]", "setting": "PDE4 (cAMP-specific)", "value": "7.53 -log IC50, mol/l"}, {"measurement": "IC50", "setting": "PDE3 (cGMP-inhibited)", "value": 776, "unit": "nM"}, {"measurement": "melting point", "value": "168 to 170", "unit": "°C"}]}
